Data reported in article PMC3934850 (Biochimica et biophysica acta, 2014).

Target: myoglobin (carbonmonoxy myoglobin, MbCO) (Equus caballus, UniProt P68082)
Experiment: 1H NMR titration
Type: binding

myoglobin (carbonmonoxy myoglobin, MbCO), sequence (P68082 2-154): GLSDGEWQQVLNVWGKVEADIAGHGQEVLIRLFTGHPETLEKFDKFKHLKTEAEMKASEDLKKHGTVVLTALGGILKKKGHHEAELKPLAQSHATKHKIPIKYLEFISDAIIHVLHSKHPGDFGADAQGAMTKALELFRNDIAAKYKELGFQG

Compound: CCCCCCCCCCCCCCCC(=O)O [PA, palmitate]
- Kd: 39 to 48 µM
